These results are taken from patent US12479847B2 (DANA-FARBER CANCER INSTITUTE, INC., priority 2019, dated 2025).

Structures are written as SMILES. Like-named read-outs stand apart in the source and are kept apart here.

What all share (experiment): KINOMEscan (ScanMAX) kinase profiling
Common to all, as to format: binding

The target of test [1] is T1, panel of 468 kinases (Homo sapiens, UniProt O43318).
T1 construct: purchased KINOMEscan (ScanMAX) service
T1 sequence (O43318 1-606): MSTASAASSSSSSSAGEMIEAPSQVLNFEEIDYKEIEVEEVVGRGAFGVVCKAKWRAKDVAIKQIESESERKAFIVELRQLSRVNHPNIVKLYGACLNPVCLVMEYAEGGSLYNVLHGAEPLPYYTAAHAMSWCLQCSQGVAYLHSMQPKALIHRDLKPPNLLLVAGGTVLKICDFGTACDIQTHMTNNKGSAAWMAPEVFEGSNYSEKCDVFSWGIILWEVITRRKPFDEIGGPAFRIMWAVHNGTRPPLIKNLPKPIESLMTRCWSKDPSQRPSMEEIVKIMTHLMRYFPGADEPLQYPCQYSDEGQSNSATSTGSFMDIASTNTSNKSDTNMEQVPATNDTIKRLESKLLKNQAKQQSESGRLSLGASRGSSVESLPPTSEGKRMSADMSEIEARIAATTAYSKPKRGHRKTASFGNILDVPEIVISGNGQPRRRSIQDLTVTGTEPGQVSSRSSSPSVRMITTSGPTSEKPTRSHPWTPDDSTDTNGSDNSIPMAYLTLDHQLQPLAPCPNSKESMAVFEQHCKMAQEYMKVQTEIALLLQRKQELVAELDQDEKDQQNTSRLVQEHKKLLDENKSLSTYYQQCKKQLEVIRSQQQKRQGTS
The conditions noted are these: TAK1; 1 μM; read-out: % control.

Test [2] concerns the target T2, panel of 468 kinases (Homo sapiens, UniProt P07948).
T2 construct: purchased KINOMEscan (ScanMAX) service
The conditions noted are these: LYN; 1 μM; read-out: % control.

Test [3] deals with T3, panel of 468 kinases (Homo sapiens, UniProt P29597).
T3 construct: purchased KINOMEscan (ScanMAX) service
The conditions noted are these: 1 μM, read-out: % control.

Test [4] concerns the target T4, panel of 468 kinases (Homo sapiens, UniProt P53350).
T4 construct: purchased KINOMEscan (ScanMAX) service
To be noted: PLK1; 1 μM; read-out: % control.

The target of test [5] is T5, panel of 468 kinases (Homo sapiens, UniProt P53355).
T5 construct: purchased KINOMEscan (ScanMAX) service
To be noted: DAPK1; 1 μM; read-out: % control.

The target in test [6] is T6, panel of 468 kinases (Homo sapiens, UniProt P80192).
T6 construct: purchased KINOMEscan (ScanMAX) service
To be noted: MLK1; 1 μM; read-out: % control.

Test [7] concerns the target T7, panel of 468 kinases (Homo sapiens, UniProt Q14164).
T7 construct: purchased KINOMEscan (ScanMAX) service
T7 sequence (Q14164 1-716): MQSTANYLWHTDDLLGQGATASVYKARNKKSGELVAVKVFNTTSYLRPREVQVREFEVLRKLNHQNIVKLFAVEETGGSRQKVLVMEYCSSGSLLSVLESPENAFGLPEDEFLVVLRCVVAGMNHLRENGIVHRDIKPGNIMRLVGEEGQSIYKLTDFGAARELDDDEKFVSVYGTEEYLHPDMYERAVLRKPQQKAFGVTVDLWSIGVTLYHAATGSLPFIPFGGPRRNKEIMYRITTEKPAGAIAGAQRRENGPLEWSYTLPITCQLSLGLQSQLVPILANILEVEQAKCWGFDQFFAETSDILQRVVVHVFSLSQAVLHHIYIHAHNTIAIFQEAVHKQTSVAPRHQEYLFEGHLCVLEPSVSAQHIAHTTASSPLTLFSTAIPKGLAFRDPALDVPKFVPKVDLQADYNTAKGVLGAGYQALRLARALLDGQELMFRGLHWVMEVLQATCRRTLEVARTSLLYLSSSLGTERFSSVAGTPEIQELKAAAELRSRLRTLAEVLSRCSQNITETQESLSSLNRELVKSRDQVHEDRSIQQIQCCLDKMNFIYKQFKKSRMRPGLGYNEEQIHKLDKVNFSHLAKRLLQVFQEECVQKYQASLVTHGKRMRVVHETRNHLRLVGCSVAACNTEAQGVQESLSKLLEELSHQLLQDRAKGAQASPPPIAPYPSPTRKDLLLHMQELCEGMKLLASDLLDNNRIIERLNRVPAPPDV
The conditions noted are these: IKK-epsilon; 1 μM; read-out: % control.

Test [8] addresses T8, panel of 468 kinases (Homo sapiens, UniProt Q16539).
T8 construct: purchased KINOMEscan (ScanMAX) service
The conditions noted are these: p38-alpha; 1 μM; read-out: % control.

For test [9], the target named is T9, panel of 468 kinases (Homo sapiens, UniProt Q9UQ88).
T9 construct: purchased KINOMEscan (ScanMAX) service
T9 sequence (Q9UQ88 1-783): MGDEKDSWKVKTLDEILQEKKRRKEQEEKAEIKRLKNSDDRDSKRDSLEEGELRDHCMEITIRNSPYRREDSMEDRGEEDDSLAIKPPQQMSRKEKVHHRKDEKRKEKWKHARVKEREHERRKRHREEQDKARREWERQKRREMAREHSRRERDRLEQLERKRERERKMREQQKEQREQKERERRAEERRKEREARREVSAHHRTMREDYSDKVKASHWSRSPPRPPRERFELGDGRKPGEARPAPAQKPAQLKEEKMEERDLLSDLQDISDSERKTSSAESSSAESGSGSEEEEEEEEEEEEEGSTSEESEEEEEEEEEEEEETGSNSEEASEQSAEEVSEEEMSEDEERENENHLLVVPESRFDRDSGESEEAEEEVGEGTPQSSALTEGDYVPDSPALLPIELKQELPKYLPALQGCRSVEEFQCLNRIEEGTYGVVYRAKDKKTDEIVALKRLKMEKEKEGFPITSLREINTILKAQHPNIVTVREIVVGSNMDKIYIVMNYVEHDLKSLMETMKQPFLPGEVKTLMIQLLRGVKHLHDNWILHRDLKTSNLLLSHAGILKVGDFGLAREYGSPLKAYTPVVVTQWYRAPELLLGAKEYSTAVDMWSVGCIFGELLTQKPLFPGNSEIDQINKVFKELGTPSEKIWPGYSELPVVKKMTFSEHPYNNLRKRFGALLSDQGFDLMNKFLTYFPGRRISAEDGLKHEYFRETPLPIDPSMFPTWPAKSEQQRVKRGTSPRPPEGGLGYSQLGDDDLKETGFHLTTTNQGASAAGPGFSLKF
The conditions noted are these: CDC2L2; 1 μM; read-out: % control.

T5 sequence (P53355 whole entry): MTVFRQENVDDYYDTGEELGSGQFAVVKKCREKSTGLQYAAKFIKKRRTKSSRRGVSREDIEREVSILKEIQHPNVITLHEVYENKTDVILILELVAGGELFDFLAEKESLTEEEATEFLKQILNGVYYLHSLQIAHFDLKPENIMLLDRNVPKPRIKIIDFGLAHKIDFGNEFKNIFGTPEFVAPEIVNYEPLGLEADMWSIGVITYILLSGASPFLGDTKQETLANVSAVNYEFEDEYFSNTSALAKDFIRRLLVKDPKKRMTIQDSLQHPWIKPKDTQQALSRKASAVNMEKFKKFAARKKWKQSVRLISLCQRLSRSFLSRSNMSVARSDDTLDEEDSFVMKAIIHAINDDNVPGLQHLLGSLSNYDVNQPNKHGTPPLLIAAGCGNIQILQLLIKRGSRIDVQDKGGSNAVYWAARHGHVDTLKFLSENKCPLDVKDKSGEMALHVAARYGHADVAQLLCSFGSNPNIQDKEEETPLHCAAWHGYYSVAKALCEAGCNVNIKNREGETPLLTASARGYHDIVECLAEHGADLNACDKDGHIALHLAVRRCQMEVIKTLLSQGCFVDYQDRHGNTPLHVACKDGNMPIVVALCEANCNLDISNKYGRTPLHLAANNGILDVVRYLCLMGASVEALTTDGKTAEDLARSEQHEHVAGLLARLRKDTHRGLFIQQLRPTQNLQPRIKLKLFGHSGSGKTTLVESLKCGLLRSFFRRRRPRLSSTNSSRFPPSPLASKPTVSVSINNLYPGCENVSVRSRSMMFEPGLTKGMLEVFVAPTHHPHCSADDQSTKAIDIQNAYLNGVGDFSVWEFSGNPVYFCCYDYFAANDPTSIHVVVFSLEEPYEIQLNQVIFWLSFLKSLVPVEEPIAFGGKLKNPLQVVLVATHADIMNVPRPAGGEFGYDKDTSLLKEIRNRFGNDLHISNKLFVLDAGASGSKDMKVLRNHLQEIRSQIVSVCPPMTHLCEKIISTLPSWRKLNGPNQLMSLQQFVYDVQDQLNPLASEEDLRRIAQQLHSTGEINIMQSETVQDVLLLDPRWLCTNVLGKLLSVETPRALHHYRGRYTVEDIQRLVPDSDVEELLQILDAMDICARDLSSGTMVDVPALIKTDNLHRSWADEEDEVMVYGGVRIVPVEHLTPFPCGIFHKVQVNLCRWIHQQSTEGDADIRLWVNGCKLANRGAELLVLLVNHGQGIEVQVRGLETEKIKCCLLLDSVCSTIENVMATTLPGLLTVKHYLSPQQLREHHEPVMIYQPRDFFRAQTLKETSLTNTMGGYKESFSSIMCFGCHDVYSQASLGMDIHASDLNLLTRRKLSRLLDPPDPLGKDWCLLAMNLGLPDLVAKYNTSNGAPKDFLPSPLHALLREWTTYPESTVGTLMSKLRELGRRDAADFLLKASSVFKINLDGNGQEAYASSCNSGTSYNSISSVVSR
T3 sequence (P29597 whole entry): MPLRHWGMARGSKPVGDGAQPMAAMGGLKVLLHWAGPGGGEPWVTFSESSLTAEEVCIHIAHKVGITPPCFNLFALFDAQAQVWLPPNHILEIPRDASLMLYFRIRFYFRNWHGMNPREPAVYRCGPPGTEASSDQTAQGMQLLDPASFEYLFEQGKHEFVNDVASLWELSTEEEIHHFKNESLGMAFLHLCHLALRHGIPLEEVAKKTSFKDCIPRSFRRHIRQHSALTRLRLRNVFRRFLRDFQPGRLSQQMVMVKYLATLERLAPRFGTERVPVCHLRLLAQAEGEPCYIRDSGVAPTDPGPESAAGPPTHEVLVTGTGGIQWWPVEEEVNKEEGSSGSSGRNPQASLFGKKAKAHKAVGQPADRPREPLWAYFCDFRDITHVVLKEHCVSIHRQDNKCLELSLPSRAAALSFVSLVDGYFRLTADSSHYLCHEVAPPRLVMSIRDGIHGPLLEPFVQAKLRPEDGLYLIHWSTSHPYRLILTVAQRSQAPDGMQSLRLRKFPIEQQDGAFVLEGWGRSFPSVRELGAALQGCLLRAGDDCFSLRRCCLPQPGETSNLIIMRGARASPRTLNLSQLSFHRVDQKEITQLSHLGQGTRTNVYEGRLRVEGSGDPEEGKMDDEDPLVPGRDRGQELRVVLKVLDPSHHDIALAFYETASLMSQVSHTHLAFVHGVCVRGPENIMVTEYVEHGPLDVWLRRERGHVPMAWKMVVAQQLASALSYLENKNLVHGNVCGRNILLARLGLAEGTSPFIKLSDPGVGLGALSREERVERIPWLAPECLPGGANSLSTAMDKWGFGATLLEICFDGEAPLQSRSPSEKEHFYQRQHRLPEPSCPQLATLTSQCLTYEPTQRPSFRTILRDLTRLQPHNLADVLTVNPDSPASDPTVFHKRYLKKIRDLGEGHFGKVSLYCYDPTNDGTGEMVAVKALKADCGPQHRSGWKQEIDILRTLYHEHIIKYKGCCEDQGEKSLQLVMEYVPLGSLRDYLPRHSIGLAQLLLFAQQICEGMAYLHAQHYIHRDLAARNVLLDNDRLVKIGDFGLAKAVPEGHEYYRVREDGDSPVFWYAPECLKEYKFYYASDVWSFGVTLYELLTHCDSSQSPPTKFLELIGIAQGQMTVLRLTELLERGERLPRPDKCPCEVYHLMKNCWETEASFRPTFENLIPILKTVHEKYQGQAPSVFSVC
T6 sequence (P80192 whole entry): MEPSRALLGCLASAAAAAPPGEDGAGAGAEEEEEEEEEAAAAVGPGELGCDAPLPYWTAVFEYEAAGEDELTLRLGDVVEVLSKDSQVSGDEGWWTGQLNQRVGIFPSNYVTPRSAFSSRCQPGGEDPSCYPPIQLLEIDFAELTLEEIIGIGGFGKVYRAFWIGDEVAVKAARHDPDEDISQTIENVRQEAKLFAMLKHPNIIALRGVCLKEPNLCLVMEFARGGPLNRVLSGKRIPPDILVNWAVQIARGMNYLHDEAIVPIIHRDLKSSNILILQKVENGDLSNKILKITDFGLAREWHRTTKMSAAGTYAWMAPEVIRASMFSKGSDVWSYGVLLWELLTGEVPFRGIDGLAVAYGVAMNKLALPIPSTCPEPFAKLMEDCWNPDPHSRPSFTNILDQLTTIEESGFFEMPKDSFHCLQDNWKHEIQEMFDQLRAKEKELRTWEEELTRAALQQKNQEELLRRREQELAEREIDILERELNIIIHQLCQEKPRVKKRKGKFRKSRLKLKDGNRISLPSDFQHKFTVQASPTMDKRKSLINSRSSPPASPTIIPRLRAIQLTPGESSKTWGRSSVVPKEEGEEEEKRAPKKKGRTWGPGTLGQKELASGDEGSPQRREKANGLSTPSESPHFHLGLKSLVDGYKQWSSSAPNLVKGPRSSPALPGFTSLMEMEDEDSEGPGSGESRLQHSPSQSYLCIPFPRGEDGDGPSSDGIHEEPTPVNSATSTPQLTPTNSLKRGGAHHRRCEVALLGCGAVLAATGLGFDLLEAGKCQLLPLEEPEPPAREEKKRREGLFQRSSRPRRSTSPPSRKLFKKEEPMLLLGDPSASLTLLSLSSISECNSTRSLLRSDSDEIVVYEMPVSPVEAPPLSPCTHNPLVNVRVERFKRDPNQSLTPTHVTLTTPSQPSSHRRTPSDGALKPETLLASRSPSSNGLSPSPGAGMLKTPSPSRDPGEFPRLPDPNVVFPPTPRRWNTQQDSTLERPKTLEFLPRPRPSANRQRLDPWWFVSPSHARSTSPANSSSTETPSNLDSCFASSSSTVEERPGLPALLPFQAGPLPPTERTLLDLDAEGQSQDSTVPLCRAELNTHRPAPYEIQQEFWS
T8 sequence (Q16539 whole entry): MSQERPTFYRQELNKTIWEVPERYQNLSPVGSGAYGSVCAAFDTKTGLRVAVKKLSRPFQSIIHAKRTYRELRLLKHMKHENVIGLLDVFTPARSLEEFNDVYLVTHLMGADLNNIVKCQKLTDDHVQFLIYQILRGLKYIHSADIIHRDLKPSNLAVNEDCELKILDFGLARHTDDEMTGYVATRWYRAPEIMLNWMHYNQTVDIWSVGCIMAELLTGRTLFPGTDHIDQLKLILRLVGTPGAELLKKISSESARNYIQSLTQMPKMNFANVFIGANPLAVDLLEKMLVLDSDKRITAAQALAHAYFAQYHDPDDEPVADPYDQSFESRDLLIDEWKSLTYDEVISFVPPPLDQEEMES
T2 sequence (P07948 whole entry): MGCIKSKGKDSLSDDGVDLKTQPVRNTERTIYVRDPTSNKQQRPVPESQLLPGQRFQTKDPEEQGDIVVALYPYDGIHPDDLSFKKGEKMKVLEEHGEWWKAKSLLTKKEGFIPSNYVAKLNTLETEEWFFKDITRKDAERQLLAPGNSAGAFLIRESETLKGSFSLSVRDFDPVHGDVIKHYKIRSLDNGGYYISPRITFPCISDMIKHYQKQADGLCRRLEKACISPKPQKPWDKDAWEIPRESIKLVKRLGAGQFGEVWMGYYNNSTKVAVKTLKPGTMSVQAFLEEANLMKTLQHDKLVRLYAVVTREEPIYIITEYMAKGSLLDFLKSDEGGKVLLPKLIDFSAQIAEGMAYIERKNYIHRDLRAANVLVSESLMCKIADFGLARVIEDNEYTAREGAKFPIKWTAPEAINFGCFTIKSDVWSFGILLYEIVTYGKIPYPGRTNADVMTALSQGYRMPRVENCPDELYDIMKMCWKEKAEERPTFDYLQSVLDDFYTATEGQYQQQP

As for `CNc1nc(Nc2ccc(C(=O)N3CCC(N4CCOCC4)CC3)c3c2OCO3)nc2[nH]cc(Cl)c12` [Compound 75, (7-((5-chloro-4-(methylamino)-7H-pyrrolo[2,3-d]pyrimidin-2-yl)amino)benzo[d][1,3]dioxol-4-yl)(4-morpholinopiperidin-1-yl)methanone], the remaining binding at 1 µM on panel of 468 kinases [1] stood at 29%; on panel of 468 kinases [2] it was 100%; at panel of 468 kinases [3] (TYK2(JH1domain-catalytic)), 46%; at panel of 468 kinases [3] (TYK2(JH2domain-pseudokinase)) it was 100%; on panel of 468 kinases [4], 78%; on panel of 468 kinases [5], 14%. The remaining binding at 1 µM at panel of 468 kinases [6] came out at 91%; on panel of 468 kinases [7], 47%; on panel of 468 kinases [8] it was 100%; at panel of 468 kinases [9], 100%.

As for `CNc1nc(Nc2ccc(P3(=O)CCN(C4CCOCC4)CC3)cc2OC)nc2[nH]cc(Cl)c12` [Compound 77, 4-(4-((5-chloro-4-(methylamino)-7H-pyrrolo[2,3-d]pyrimidin-2-yl)amino)-3-methoxyphenyl)-1-(tetrahydro-2H-pyran-4-yl)-1,4-azaphosphinane 4-oxide], the remaining binding at 1 µM was 84% on panel of 468 kinases [1]; 100% at panel of 468 kinases [2]; 66% on panel of 468 kinases [3] (TYK2(JH1domain-catalytic)); 82% at panel of 468 kinases [3] (TYK2(JH2domain-pseudokinase)); 86% on panel of 468 kinases [4]; 8.3% on panel of 468 kinases [5]. The remaining binding at 1 µM on panel of 468 kinases [6] was 98%; on panel of 468 kinases [7], 89%; at panel of 468 kinases [8], 100%; on panel of 468 kinases [9], 100%.

Turning to `CNc1nc(Nc2ccc(S(=O)(=O)N3CCC(N4CCOCC4)CC3)cc2OC)nc2[nH]cc(Cl)c12` [Compound 12, 5-chloro-N2-(2-methoxy-4-((4-morpholinopiperidin-1-yl)sulfonyl)phenyl)-N4-methyl-7H-pyrrolo[2,3-d]pyrimidine-2,4-diamine], the remaining binding at 1 µM on panel of 468 kinases [1] is 100%; on panel of 468 kinases [2], 100%; on panel of 468 kinases [3] (TYK2(JH1domain-catalytic)), 90%; at panel of 468 kinases [3] (TYK2(JH2domain-pseudokinase)), 88%; at panel of 468 kinases [4], 82%; on panel of 468 kinases [5] it was 43%. Besides, the remaining binding at 1 µM at panel of 468 kinases [6] was 100%; at panel of 468 kinases [7], 98%; at panel of 468 kinases [8], 100%; at panel of 468 kinases [9], 100%.
